Laboratory results as given in paper PMC4306137, “The First Small-Molecule Inhibitors of Members of the Ribonuclease E Family” (Scientific Reports, 2015).
“And” between values parts separate entries of the source, which are not always exact repeats. Equal entries are not always repeated. “Also recorded” adds a separate entry of the source.

Columns and labels:
E. coli NTH-RNase E [1] = target: T1, E. coli NTH-RNase E (Escherichia coli, UniProt P21513); assay: SPR binding to immobilized E. coli NTH-RNase E; settings: for SPR binding curve behaviour (specific or non-specific binding): E. coli NTH-RNase E, plateau at higher concentrations = specific; for Steady State KD value: apparent KD from SPR steady state fit, binding to E. coli RNase E, PBS with 5% DMSO; for Kd: read-out: Steady State KD value
T1 sequence (P21513 1-529): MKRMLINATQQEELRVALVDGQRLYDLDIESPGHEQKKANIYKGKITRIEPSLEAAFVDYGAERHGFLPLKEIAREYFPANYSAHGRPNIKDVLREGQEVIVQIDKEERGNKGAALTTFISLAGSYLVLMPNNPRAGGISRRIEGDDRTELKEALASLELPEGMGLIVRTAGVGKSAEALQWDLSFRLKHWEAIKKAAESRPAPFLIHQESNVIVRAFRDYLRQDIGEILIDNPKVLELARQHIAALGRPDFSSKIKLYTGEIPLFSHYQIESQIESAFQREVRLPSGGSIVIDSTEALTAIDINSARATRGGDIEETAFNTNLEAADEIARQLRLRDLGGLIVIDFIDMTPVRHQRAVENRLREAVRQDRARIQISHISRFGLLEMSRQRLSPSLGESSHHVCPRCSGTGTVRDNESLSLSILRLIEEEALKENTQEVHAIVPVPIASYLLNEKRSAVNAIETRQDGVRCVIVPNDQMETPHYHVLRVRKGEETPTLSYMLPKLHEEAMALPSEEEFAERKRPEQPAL
Method: (§1) E. coli and M. tuberculosis RNase E were immobilized covalently using amine coupling to the surface of a Biacore CM5 sensor chip (GE Healthcare). Immobilization levels were approximately 1500 RUs. Assessment of compound binding were conducted by injecting varying compound concentrations in PBS containing 5% DMSO at flow rates of 30–90 μl/min for ~60 s over the reference and test flow cells. A Biacore T100 instrument was used and the data collected was reference and buffer subtracted prior to steady state analysis using data fitting functions provided in the Biacore T100 Evaluation Software.

E. coli NTH-RNase E [2] = target: T1, E. coli NTH-RNase E; assay: Discontinuous cleavage assay (pBR13-fl substrate), E. coli NTH-RNase E; type: biochemical; settings: for IC50: E. coli enzyme, pre-incubation 37°C 20 min, 20% DMSO, NI = no inhibition (up to 40 mM tested), read-out: Nominal IC50 RNase E; for Inhibition of catalysis by E. coli RNase E (in words): discontinuous cleavage assay, conditions used
E. coli RNase G = target: T2, E. coli RNase G (Escherichia coli, UniProt P0A9J0); assay: Discontinuous cleavage assay, E. coli RNase G; type: biochemical; settings: for Inhibition of the activity of RNase G (in words): E. coli RNase G; for IC50: E. coli enzyme, conditions as for RNase E, NI = no inhibition (up to 40 mM tested), read-out: Nominal IC50 RNase G
T2 construct: made in house
T2 sequence (P0A9J0 whole entry): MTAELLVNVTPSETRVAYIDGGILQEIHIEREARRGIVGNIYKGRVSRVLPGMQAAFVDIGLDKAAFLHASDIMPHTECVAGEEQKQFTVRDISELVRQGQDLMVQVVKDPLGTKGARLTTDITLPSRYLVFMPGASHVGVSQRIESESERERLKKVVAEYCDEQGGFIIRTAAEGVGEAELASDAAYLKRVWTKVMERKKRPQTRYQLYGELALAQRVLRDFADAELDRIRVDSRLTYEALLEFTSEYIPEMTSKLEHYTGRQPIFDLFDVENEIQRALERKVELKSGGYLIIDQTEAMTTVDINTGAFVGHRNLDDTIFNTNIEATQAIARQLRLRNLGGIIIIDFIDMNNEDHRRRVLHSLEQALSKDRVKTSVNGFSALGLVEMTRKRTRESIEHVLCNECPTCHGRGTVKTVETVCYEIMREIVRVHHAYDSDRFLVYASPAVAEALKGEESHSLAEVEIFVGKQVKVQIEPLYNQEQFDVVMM
Method: The compounds were obtained from Maybridge and re-suspended in 100% DMSO. Discontinuous cleavage assays were done using a 3′ fluorescein-labelled, 5′-monophosphorylated version of BR13, a well-characterised substrate of RNase E, with the sequence 5′-[…]↓AUUUG[44]. E. coli NTH-RNase E was pre-incubated with and without the compounds at 37°C for 20 min before the addition of substrate in a buffer containing 25 mM Bis-Tris Propane (pH 8.3), 100 mM NaCl, 15 mM MgCl2, 0.1% Triton X-100, 1 mM DTT and 20% DMSO. The enzyme monomer and substrate concentrations at the start of the reaction were 0.5 and 62 nM, respectively. The inhibition assays with RNase G and RNase A (Sigma) were carried out as above. Reaction products were analysed by electrophoresis using a denaturing 15% polyacrylamide, sequencing-type gel. Detection was via a FLA-5100 scanner (Fuji). Substrate and product were quantified using AIDA software (Raytest Isotopenmessgerate GmbH). Initial rates of reaction at increasing compound concentrations were obtained by establishing the slope representing percentage product generated over time during the initial, linear phase of the reaction. IC50 values were calculated by plotting the percentage inhibition of initial rate against compound concentration.

M. tuberculosis RNase E [3] = target: T3, M. tuberculosis RNase E (Mycobacterium tuberculosis, UniProt P71905); assay: Cleavage of pBR13-fl by M. tuberculosis RNase E; type: biochemical; settings: 5 mM compound; room temperature; 5% DMSO
T3 sequence (P71905 whole entry): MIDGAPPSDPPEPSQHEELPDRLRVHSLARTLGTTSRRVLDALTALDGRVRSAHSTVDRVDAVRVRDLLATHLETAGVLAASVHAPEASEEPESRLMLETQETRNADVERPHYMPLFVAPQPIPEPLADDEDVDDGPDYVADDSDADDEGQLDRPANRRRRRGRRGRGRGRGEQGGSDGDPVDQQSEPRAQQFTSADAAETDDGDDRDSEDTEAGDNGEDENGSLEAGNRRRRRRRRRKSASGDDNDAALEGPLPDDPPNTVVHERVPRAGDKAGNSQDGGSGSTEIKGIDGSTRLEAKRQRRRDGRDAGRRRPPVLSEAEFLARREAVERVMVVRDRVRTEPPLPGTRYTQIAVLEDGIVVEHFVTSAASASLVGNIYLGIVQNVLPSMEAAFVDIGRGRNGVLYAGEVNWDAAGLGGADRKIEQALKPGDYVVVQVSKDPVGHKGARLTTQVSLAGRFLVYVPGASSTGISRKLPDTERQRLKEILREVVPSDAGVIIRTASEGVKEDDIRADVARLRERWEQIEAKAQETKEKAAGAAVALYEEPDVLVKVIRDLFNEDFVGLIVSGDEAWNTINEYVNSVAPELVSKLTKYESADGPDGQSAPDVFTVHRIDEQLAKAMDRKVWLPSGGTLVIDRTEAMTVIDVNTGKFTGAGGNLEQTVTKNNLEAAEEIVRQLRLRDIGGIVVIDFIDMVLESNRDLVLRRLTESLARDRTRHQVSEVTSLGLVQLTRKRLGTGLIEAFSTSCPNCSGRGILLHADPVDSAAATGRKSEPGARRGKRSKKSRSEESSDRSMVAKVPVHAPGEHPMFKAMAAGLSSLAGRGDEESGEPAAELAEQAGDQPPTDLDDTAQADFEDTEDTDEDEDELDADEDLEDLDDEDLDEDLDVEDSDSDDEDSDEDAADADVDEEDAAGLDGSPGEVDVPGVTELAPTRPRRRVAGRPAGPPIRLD
Method: For M. tuberculosis RNase E (a kind gift from Prof. B. Luisi, University of Cambridge), 1 μM 3′ fluorescently-labelled, 5′ monophosphorylated BR13 was incubated with 50 nM RNase E with and without the compounds in buffer containing 25 mM Tris-HCl (pH 7.5), 100 mM NaCl, 15 mM MgCl2, 1 mM DTT and 5% DMSO at room temperature. Reactions were analysed by electrophoresis using denaturing 20% polyacrylamide gels and visualised using a UV transilluminator.

M. tuberculosis RNase E [4] = target: T3, M. tuberculosis RNase E; assay: SPR binding to immobilized M. tuberculosis RNase E; settings: data not shown
Method: as §1

[5] = compounds at their E. coli RNase E IC50 concentration: 1.9 mM P10, 1.8 mM P11, 3.8 mM M5, combinations at the same concentrations, read-out: Initial rate normalised to 1 for the reaction containing no compound

Structure (SMILES) | SPR binding curve behaviour (specific or non-specific binding) (E. coli NTH-RNase E [1]) | Steady State KD value (E. coli NTH-RNase E [1]) | IC50 (E. coli NTH-RNase E [2]) | activity at 1900 µM (E. coli NTH-RNase E [2]; [5]) [%] | Inhibition of catalysis by E. coli RNase E (in words) (E. coli NTH-RNase E [2]) | Inhibition of the activity of RNase G (in words) (E. coli RNase G) | IC50 (E. coli RNase G) | Kd (E. coli NTH-RNase E [1]) [mM] | Inhibition of M. tuberculosis RNase E (in words) (M. tuberculosis RNase E [3]) | activity at 1800 µM (E. coli NTH-RNase E [2]; [5]) [%] | SPR binding curves, M. tuberculosis RNase E (in words) (M. tuberculosis RNase E [4]) | activity at 3800 µM (E. coli NTH-RNase E [2]; [5]) [%]
Cc1ccc(S(=O)(=O)NC(=O)N2CCCN(c3ncnc4scc(-c5ccccc5)c34)CC2)cc1 [P10] | bind at sites other than the intended target; also recorded: non-specific binding | non-specific | 1.9 mM and ~1.9 mM | 44 | inhibited RNase E | able to inhibit the activity of RNase G | 2.4 mM and ~2.4 mM |  |  |  |  | 
Cc1onc(-c2c(Cl)cccc2Cl)c1C(=O)N=S(C)(C)=O [M3] | consistent with targeting of specific sites |  | > 40 mM |  |  |  | > 40 mM | ~0.6 |  |  |  | 
Cc1nnsc1-c1onc(C)c1C(=O)O/N=C/c1cccc(Cl)c1 [M9] | consistent with targeting of specific sites |  | ~18 mM |  | inhibited catalysis but much less efficiently | able to inhibit the activity of RNase G | ~24 mM | ~2 |  |  |  | 
Cc1ccc(C)n1-c1nn(S(=O)(=O)c2cccc3nonc23)c2cccc(F)c12 [P6] | consistent with targeting of specific sites |  |  |  | clearly inhibited catalysis | able to inhibit the activity of RNase G |  |  |  |  |  | 
Cc1ccc(S(=O)(=O)NC(=O)NCCSCc2c(C)cc(C)cc2C)cc1 [P11] | consistent with targeting of specific sites; also recorded: specific binding |  |  |  | clearly inhibited catalysis | able to inhibit the activity of RNase G |  |  | clear inhibition | 62 | consistent with specific targeting | 
Cc1c(C(=O)NNc2cc(C(F)(F)F)ccc2Cl)n(C)oc1=O [M8] | consistent with targeting of specific sites |  | ~3.2 mM |  | clearly inhibited catalysis |  |  | ~3.5 |  |  |  | 
CCOC(=O)NC(=O)c1cn(Nc2ncc(Cl)cc2C(F)(F)F)c(=O)[nH]c1=O [M5] | consistent with targeting of specific sites; also recorded: specific binding |  | 3.8 mM and ~3.8 mM |  | clearly inhibited catalysis | able to inhibit the activity of RNase G | 3.3 mM and ~3.3 mM | ~3 | inhibits activity but appears to be less efficient |  | consistent with specific targeting | 42
O=C1c2ccccc2NC(c2cc(Cl)cc(Cl)c2O)N1Cc1cccnc1 (centres unmarked) [M2] | bind but at sites other than the intended target | non-specific | > 40 mM |  | did not inhibit RNase E |  | > 40 mM |  |  |  |  | 
